Data as given in US9907757B2, “Coated particles and pharmaceutical dosage forms” (Lek Pharmaceuticals d.d., priority 2003, dated 2018).

Assay: Oxidative degradation of amorphous and polymorphic forms of atorvastatin at 80° C. in air and oxygen (liquid chromatography)
Type: physicochemical
Details: hemicalcium salt; for Sensitivity to oxygen and oxidation (conclusion): from 80° C., 3 days, air/oxygen study; for Increase of degradation products %: in respect to reference samples stored at 4° C.
Procedure: The influence of oxygen on occurrence of degradation products of amorphous and four polymorphic forms of atorvastatin was investigated. The samples of amorphous atorvastatin and polymorphic forms I to IV of atorvastatin were exposed at 80° C. in normal (air) and oxygen atmosphere for 3 days. The assay of oxidation products was determined by liquid chromatography. All of the chosen forms of atorvastatin stored at 4° C. were analyzed as the reference samples.

[1] = stored at 80° C. 3 days in normal (air) atmosphere
[2] = stored at 80° C. 3 days in oxygen atmosphere

Row | SMILES | Sensitivity to oxygen and oxidation (conclusion) (listed as amorphous atorvastatin) | Increase of degradation products % [1] [%] | Increase of degradation products % [2] [%] | Sensitivity to oxygen and oxidation (conclusion)
1 | CC(C)c1c(C(=O)Nc2ccccc2)c(-c2ccccc2)c(-c2ccc(F)cc2)n1CC[C@@H](O)C[C@@H](O)CC(=O)O.CC(C)c1c(C(=O)Nc2ccccc2)c(-c2ccccc2)c(-c2ccc(F)cc2)n1CC[C@@H](O)C[C@@H](O)CC(=O)O.CC(C)c1c(C(=O)Nc2ccccc2)c(-c2ccccc2)c(-c2ccc(F)cc2)n1CC[C@@H](O)C[C@@H](O)CC(=O)[O-].CC(C)c1c(C(=O)Nc2ccccc2)c(-c2ccccc2)c(-c2ccc(F)cc2)n1CC[C@@H](O)C[C@@H](O)CC(=O)[O-].[Ca+2] (relative stereo) [Amorphous ATV, (R-(R*,R*))-2-(4-fluorophenyl-beta, delta-dihydroxy-5-(1-methylethyl)-3-phenyl-4-((phenylamino)carbonyl)-1H-pyrrole-1-heptanoic acid hemicalcium salt] | highly sensitive to oxidation | 1.04 | 3.4 | 
2 | CC(C)c1c(C(=O)Nc2ccccc2)c(-c2ccccc2)c(-c2ccc(F)cc2)n1CC[C@@H](O)C[C@@H](O)CC(=O)O.CC(C)c1c(C(=O)Nc2ccccc2)c(-c2ccccc2)c(-c2ccc(F)cc2)n1CC[C@@H](O)C[C@@H](O)CC(=O)O.CC(C)c1c(C(=O)Nc2ccccc2)c(-c2ccccc2)c(-c2ccc(F)cc2)n1CC[C@@H](O)C[C@@H](O)CC(=O)[O-].CC(C)c1c(C(=O)Nc2ccccc2)c(-c2ccccc2)c(-c2ccc(F)cc2)n1CC[C@@H](O)C[C@@H](O)CC(=O)[O-].[Ca+2] (relative stereo) [Crystalline form I, (R-(R*,R*))-2-(4-fluorophenyl-beta, delta-dihydroxy-5-(1-methylethyl)-3-phenyl-4-((phenylamino)carbonyl)-1H-pyrrole-1-heptanoic acid hemicalcium salt] |  | 0.04 | 0.07 | stable to oxygen and oxidation
3 | CC(C)c1c(C(=O)Nc2ccccc2)c(-c2ccccc2)c(-c2ccc(F)cc2)n1CC[C@@H](O)C[C@@H](O)CC(=O)O.CC(C)c1c(C(=O)Nc2ccccc2)c(-c2ccccc2)c(-c2ccc(F)cc2)n1CC[C@@H](O)C[C@@H](O)CC(=O)O.CC(C)c1c(C(=O)Nc2ccccc2)c(-c2ccccc2)c(-c2ccc(F)cc2)n1CC[C@@H](O)C[C@@H](O)CC(=O)[O-].CC(C)c1c(C(=O)Nc2ccccc2)c(-c2ccccc2)c(-c2ccc(F)cc2)n1CC[C@@H](O)C[C@@H](O)CC(=O)[O-].[Ca+2] (relative stereo) [Crystalline form II, (R-(R*,R*))-2-(4-fluorophenyl-beta, delta-dihydroxy-5-(1-methylethyl)-3-phenyl-4-((phenylamino)carbonyl)-1H-pyrrole-1-heptanoic acid hemicalcium salt] |  | 0.25 | 0.71 | slightly sensitive to oxidation
4 | CC(C)c1c(C(=O)Nc2ccccc2)c(-c2ccccc2)c(-c2ccc(F)cc2)n1CC[C@@H](O)C[C@@H](O)CC(=O)O.CC(C)c1c(C(=O)Nc2ccccc2)c(-c2ccccc2)c(-c2ccc(F)cc2)n1CC[C@@H](O)C[C@@H](O)CC(=O)O.CC(C)c1c(C(=O)Nc2ccccc2)c(-c2ccccc2)c(-c2ccc(F)cc2)n1CC[C@@H](O)C[C@@H](O)CC(=O)[O-].CC(C)c1c(C(=O)Nc2ccccc2)c(-c2ccccc2)c(-c2ccc(F)cc2)n1CC[C@@H](O)C[C@@H](O)CC(=O)[O-].[Ca+2] (relative stereo) [Crystalline form III, (R-(R*,R*))-2-(4-fluorophenyl-beta, delta-dihydroxy-5-(1-methylethyl)-3-phenyl-4-((phenylamino)carbonyl)-1H-pyrrole-1-heptanoic acid hemicalcium salt] |  | 0.11 | 0.47 | slightly sensitive to oxidation
5 | CC(C)c1c(C(=O)Nc2ccccc2)c(-c2ccccc2)c(-c2ccc(F)cc2)n1CC[C@@H](O)C[C@@H](O)CC(=O)O.CC(C)c1c(C(=O)Nc2ccccc2)c(-c2ccccc2)c(-c2ccc(F)cc2)n1CC[C@@H](O)C[C@@H](O)CC(=O)O.CC(C)c1c(C(=O)Nc2ccccc2)c(-c2ccccc2)c(-c2ccc(F)cc2)n1CC[C@@H](O)C[C@@H](O)CC(=O)[O-].CC(C)c1c(C(=O)Nc2ccccc2)c(-c2ccccc2)c(-c2ccc(F)cc2)n1CC[C@@H](O)C[C@@H](O)CC(=O)[O-].[Ca+2] (relative stereo) [Crystalline form IV, (R-(R*,R*))-2-(4-fluorophenyl-beta, delta-dihydroxy-5-(1-methylethyl)-3-phenyl-4-((phenylamino)carbonyl)-1H-pyrrole-1-heptanoic acid hemicalcium salt] |  | 1.14 | 3.67 | highly sensitive to oxidation
